Our source for the pest or weed control values is US8530667B2, “Herbicides” (Syngenta Limited, priority 2007, dated 2013).

Each structure is given as a SMILES string.

Assay type in all cases: in vivo
Test [1] has as its system Echinochloa crus-galli (ECHCG). The test can be described thus: Example B pre-emergence herbicidal activity, glasshouse pot test. To be noted: 312 h, Rate 250 g/ha, evaluated after 13 days, read-out: Pre-Emergence Activity ECHCG (100=total damage to plant; 0=no damage to plant). As to the method:
(§1) Seeds of a variety of test species were sown in standard soil in pots. After cultivation for one day (pre-emergence) or after 8 days cultivation (post-emergence) under controlled conditions in a glasshouse (at 24/16° C., day/night; 14 hours light; 65% humidity), the plants were sprayed with an aqueous spray solution derived from the formulation of the technical active ingredient in acetone/water (50:50) solution containing 0.5% Tween 20 (polyoxyethelyene sorbitan monolaurate, CAS RN 9005-64-5). The test plants were then grown in a glasshouse under controlled conditions in a glasshouse (at 24/16° C., day/night; 14 hours light; 65% humidity) and watered twice daily. After 13 days for pre and post-emergence, the test was evaluated (100=total damage to plant; 0=no damage to plant). Alopecurus myosuroides (ALOMY), Avena fatua (AVEFA), Setaria faberi (SETFA), Echinochloa crus-galli (ECHCG) and Amaranthus retoflexus (AMARE)

Test [2] deals with Setaria faberi (SETFA). Described as above. The settings on record: 312 h, Rate 250 g/ha, evaluated after 13 days, read-out: Pre-Emergence Activity SETFA (100=total damage to plant; 0=no damage to plant). As to the method:
as §1

For test [3], the system named is Alopecurus myosuroides (ALOMY). The test is described as above. The settings on record: 312 h, Rate 250 g/ha, evaluated after 13 days, read-out: Pre-Emergence Activity ALOMY (100=total damage to plant; 0=no damage to plant). As to the method:
as §1

Test [4] relates to Amaranthus retoflexus (AMARE). Described as above. To be noted: Amaranthus retroflexus, 312 h, Rate 250 g/ha, evaluated after 13 days, read-out: Pre-Emergence Activity AMARE (100=total damage to plant; 0=no damage to plant). As to the method:
as §1

Test [5] deals with Avena fatua (AVEFA). Described as above. To be noted: 312 h, Rate 250 g/ha, evaluated after 13 days, read-out: Pre-Emergence Activity AVEFA (100=total damage to plant; 0=no damage to plant). As to the method:
as §1

In test [6] the test system is Echinochloa crus-galli (ECHCG). The test can be described thus: Example B post-emergence herbicidal activity, glasshouse pot test. The settings on record: 312 h, rate 250 g/ha, evaluated after 13 days, read-out: Post-emergence activity ECHCG (100=total damage to plant; 0=no damage to plant). As to the method: as §1
For test [7], the system named is Setaria faberi (SETFA). Described as above. The settings on record: 312 h, rate 250 g/ha, evaluated after 13 days, read-out: Post-emergence activity SETFA (100=total damage to plant; 0=no damage to plant). As to the method: as §1
In test [8] the test system is Alopecurus myosuroides (ALOMY). The test is described as above. To be noted: 312 h, rate 250 g/ha, evaluated after 13 days, read-out: Post-emergence activity ALOMY (100=total damage to plant; 0=no damage to plant). As to the method: as §1
Test [9] relates to Amaranthus retoflexus (AMARE). Described as above. The settings on record: Amaranthus retroflexus, 312 h, rate 250 g/ha, evaluated after 13 days, read-out: Post-emergence activity AMARE (100=total damage to plant; 0=no damage to plant). As to the method: as §1
The subject of test [10] is Avena fatua (AVEFA). The test is described as above. The settings on record: 312 h, rate 250 g/ha, evaluated after 13 days, read-out: Post-emergence activity AVEFA (100=total damage to plant; 0=no damage to plant). As to the method:
as §1

Consider `CCc1sc(-c2ccc(OC(F)F)cc2)nc1C1C(=O)[C@@H]2[C@H](C1=O)[C@H]1CC[C@@H]2O1` (some centres unmarked) [Compound T42], for which the pest or weed control at 250 g/ha in [1] amounted to 90%; in test [2] it was 100%; in test [3] it was 90%; in test [4], 0%; in test [5] it was 30%; in test [6] it was 100%. Also, the pest or weed control at 250 g/ha in test [7] was found to be 100%; in test [8], 100%; in test [9], 0%; in test [10] it was 100%.
Consider `CCc1sc(-c2ccc(Br)cn2)nc1C1C(=O)[C@@H]2[C@H](C1=O)[C@H]1CC[C@@H]2O1` (some centres unmarked) [Compound T43], for which the pest or weed control at 250 g/ha worked out at 80% in test [1]; 60% in test [2]; 0% in test [3]; 0% in test [4]; 0% in [5]; 100% in test [6]. Further, the pest or weed control at 250 g/ha was determined as 100% in test [7], 90% in test [8], 0% in test [9] and 100% in test [10].
On to `CCc1sc(-c2ccc(Cl)cc2Cl)nc1C1C(=O)[C@@H]2[C@H](C1=O)[C@H]1CC[C@@H]2O1` (some centres unmarked) [Compound T45], for which the pest or weed control at 250 g/ha in [1] was 100%; in test [2], 100%; in test [3] it was 90%; in [4] it was 0%; in [5], 60%; in [6], 100%. In addition, the pest or weed control at 250 g/ha stood at 100% in test [7], 100% in test [8], 0% in test [9] and 100% in test [10].
Take `CCc1sc(-c2cc(F)c(Cl)cc2Cl)nc1C1C(=O)[C@@H]2[C@H](C1=O)[C@H]1CC[C@@H]2O1` (some centres unmarked) [Compound T47]: the pest or weed control at 250 g/ha in [1] is 90%; in test [2], 100%; in test [3], 90%; in test [4], 0%; in test [5], 80%; in test [6], 100%. For the same compound, the pest or weed control at 250 g/ha was found to be 100% in test [7], 100% in test [8], 0% in test [9] and 100% in [10].
Turning to `CSc1ccc(-c2nc(C3C(=O)[C@@H]4[C@H](C3=O)[C@H]3CC[C@@H]4O3)c(C)s2)cc1` (some centres unmarked) [Compound T48], the pest or weed control at 250 g/ha was 70% in [1]; 90% in test [2]; 40% in test [3]; 0% in test [4]; 20% in test [5]; 100% in test [6]. Also, the pest or weed control at 250 g/ha came out at 90% in test [7], 60% in [8], 40% in test [9] and 40% in test [10].
Regarding `Cc1sc(-c2ccc([S+](C)[O-])cc2)nc1C1C(=O)[C@@H]2[C@H](C1=O)[C@H]1CC[C@@H]2O1` (some centres unmarked) [Compound T49], the pest or weed control at 250 g/ha in test [1] was 70%; in test [2] it was 90%; in test [3] it was 20%; in test [4] it was 0%; in test [5], 0%; in test [6], 100%. Further, the pest or weed control at 250 g/ha in test [7] worked out at 90%; in [8], 50%; in test [9], 0%; in test [10], 30%.
In the case of `CCc1sc(-c2ccc(SC)cc2)nc1C1C(=O)[C@@H]2[C@H](C1=O)[C@H]1CC[C@@H]2O1` (some centres unmarked) [Compound T50], the pest or weed control at 250 g/ha in test [1] is 90%; in [2], 90%; in [3], 40%; in test [4], 0%; in test [5], 0%; in test [6] it was 100%. Besides, the pest or weed control at 250 g/ha came out at 100% in test [7], 90% in [8], 0% in test [9] and 90% in [10].
In the case of `Cc1sc(-c2ccc(C(C)C)cc2)nc1C1C(=O)[C@@H]2[C@H](C1=O)[C@H]1CC[C@@H]2O1` (some centres unmarked) [Compound T51], the pest or weed control at 250 g/ha in test [1] worked out at 100%; in test [2], 100%; in [3] it was 80%; in test [4], 0%; in test [5], 90%; in test [6], 100%. The pest or weed control at 250 g/ha in test [7] came to 90%; in test [8] it was 90%; in test [9], 0%; in test [10], 80%.
`Cc1sc(-c2ccc(OC(F)F)cc2Cl)nc1C1C(=O)[C@@H]2[C@H](C1=O)[C@H]1CC[C@@H]2O1` (some centres unmarked) [Compound T52]: the pest or weed control at 250 g/ha in [1] was found to be 100%; in test [2] it was 100%; in [3] it was 70%; in test [4], 0%; in test [5] it was 90%; in [6], 100%. The pest or weed control at 250 g/ha in test [7] worked out at 100%; in test [8] it was 100%; in [9], 0%; in test [10], 100%.
Consider `Cc1cnc(-c2ccc(Cl)cc2)nc1C1C(=O)[C@@H]2[C@H](C1=O)[C@H]1CC[C@@H]2O1` (some centres unmarked) [Compound T53], for which the pest or weed control at 250 g/ha was determined as 80% in [1]; 90% in test [2]; 50% in test [3]; 90% in [4]; 70% in test [5]; 90% in [6]. Also, the pest or weed control at 250 g/ha is 100% in [7], 60% in test [8], 0% in test [9] and 70% in [10].
Take `Cc1sc(-c2ccc(OC(F)F)cc2F)nc1C1C(=O)[C@@H]2[C@H](C1=O)[C@H]1CC[C@@H]2O1` (some centres unmarked) [Compound T54]: the pest or weed control at 250 g/ha in [1] stood at 100%; in test [2] it was 100%; in test [3], 90%; in test [4], 0%; in test [5], 100%; in test [6] it was 100%. Moreover, the pest or weed control at 250 g/ha in test [7] is 100%; in [8], 100%; in [9], 40%; in test [10], 100%.
